For assay [1], the system named is Flixweed. The experiment in a line: weed control effect in post emergence stage, greenhouse pot spray. Format: in vivo. The note with it: 16 g/mu, sprayed at 2-3 leaf stage, after 3 weeks. The method, then:
(§1) The activity level standard of harmful plant damage (i.e. growth inhibition rate) is as follows: The above described growth control rate is fresh weight control rate. Monocotyledonous and dicotyledonous weed seeds and main crop seeds (i.e. wheat, corn, rice, soybean, cotton, oilseed, millet and Sorghum) were put into a plastic pot loaded with soil. Then covered with 0.5-2 cm soil, the seeds were allowed to grow in good greenhouse environment. The test plants were treated at 2-3 leaf stage 2-3 weeks after sowing. […] The solution was sprayed to the plants with a sprayer. Then the plants were cultured for 3 weeks in the greenhouse.

Assay [2] concerns Barnyard grass. Described as above. The settings on record: sprayed at 2-3 leaf stage, after 3 weeks. It is filed as in vivo. As for the experimental part:
as §1

Structures are written as SMILES.

As for `Cc1cnn(Cc2c(S(C)(=O)=O)ccc(C(=O)c3cnn(C)c3O)c2Cl)c1` [Compound 7], the “weed control effect (activity level), Flixweed” value (“weed control effect … Flixweed” below) in assay [1] was determined as 10. For the same molecule, the “weed control effect (activity level), Barnyard grass” value (“weed control effect … Barnyard grass” for short) in assay [2] (1 g/mu) is 2 (above 20% growth inhibition rate); in assay [2] (2 g/mu), 3 (above 30% growth inhibition rate); in assay [2] (4 g/mu), 3 (above 30% growth inhibition rate); in assay [2] (8 g/mu), 6 (above 60% growth inhibition rate); in assay [2] (16 g/mu), 6 (above 60% growth inhibition rate).

For `Cc1ccn(Cc2c(S(C)(=O)=O)ccc(C(=O)c3cnn(C)c3O)c2Cl)n1` [Compound 8], the “weed control effect … Flixweed” value in assay [1] amounted to 10. The “weed control effect … Barnyard grass” value was 2 (above 20% growth inhibition rate) in assay [2] (1 g/mu); 2 (above 20% growth inhibition rate) in assay [2] (2 g/mu); 4 (above 30% growth inhibition rate) in assay [2] (4 g/mu); 7 (above 70% growth inhibition rate) in assay [2] (8 g/mu); 8 (above 80% growth inhibition rate) in assay [2] (16 g/mu).

In the case of `Cc1cc(C)n(Cc2c(S(C)(=O)=O)ccc(C(=O)c3cnn(C)c3O)c2Cl)n1` [Compound 9], the “weed control effect … Flixweed” value in assay [1] was 10. Moreover, the “weed control effect … Barnyard grass” value is listed as 2 (above 20% growth inhibition rate) in assay [2] (1 g/mu); 2 (above 20% growth inhibition rate) in assay [2] (2 g/mu); 3 (above 30% growth inhibition rate) in assay [2] (4 g/mu); 5 (above 50% growth inhibition rate) in assay [2] (8 g/mu); 5 (above 50% growth inhibition rate) in assay [2] (16 g/mu).

Turning to `Cn1ncc(C(=O)c2ccc(S(C)(=O)=O)c(Cn3cc(Cl)cn3)c2Cl)c1O` [Compound 10], the “weed control effect … Flixweed” value in assay [1] is reported as 10. The “weed control effect … Barnyard grass” value is recorded as 2 (above 20% growth inhibition rate) in assay [2] (1 g/mu); 4 (above 30% growth inhibition rate) in assay [2] (2 g/mu); 4 (above 30% growth inhibition rate) in assay [2] (4 g/mu); 7 (above 70% growth inhibition rate) in assay [2] (8 g/mu); 8 (above 80% growth inhibition rate) in assay [2] (16 g/mu).

As for `Cn1nc(C2CC2)c(C(=O)c2ccc(S(C)(=O)=O)c(Cn3cc(Cl)cn3)c2Cl)c1O` [Compound 11], the “weed control effect … Flixweed” value in assay [1] was 10. Besides, the “weed control effect … Barnyard grass” value in assay [2] (1 g/mu) is given as 2 (above 20% growth inhibition rate); in assay [2] (2 g/mu), 4 (above 30% growth inhibition rate); in assay [2] (4 g/mu), 4 (above 30% growth inhibition rate); in assay [2] (8 g/mu) it was 6 (above 60% growth inhibition rate); in assay [2] (16 g/mu), 7 (above 70% growth inhibition rate).

Take `Cc1cnn(Cc2c(S(C)(=O)=O)ccc(C(=O)c3c(C4CC4)nn(C)c3O)c2Cl)c1` [Compound 12]: the “weed control effect … Flixweed” value in assay [1] was 10. For the same molecule, the “weed control effect … Barnyard grass” value in assay [2] (1 g/mu) is 2 (above 20% growth inhibition rate); in assay [2] (2 g/mu) it was 4 (above 30% growth inhibition rate); in assay [2] (4 g/mu) it was 6 (above 60% growth inhibition rate); in assay [2] (8 g/mu), 7 (above 70% growth inhibition rate); in assay [2] (16 g/mu) it was 8 (above 80% growth inhibition rate).

Consider `CCn1nc(C)c(C(=O)c2ccc(S(C)(=O)=O)c(Cn3cc(C)cn3)c2Cl)c1O` [Compound 16], for which the “weed control effect … Flixweed” value in assay [1] was found to be 10. The “weed control effect … Barnyard grass” value in assay [2] (1 g/mu) is on record as 2 (above 20% growth inhibition rate); in assay [2] (2 g/mu), 3 (above 30% growth inhibition rate); in assay [2] (4 g/mu), 4 (above 30% growth inhibition rate); in assay [2] (8 g/mu) it was 4 (above 30% growth inhibition rate); in assay [2] (16 g/mu), 6 (above 60% growth inhibition rate).

In the case of `CCn1nc(C)c(C(=O)c2ccc(S(C)(=O)=O)c(Cn3nc(C)cc3C)c2Cl)c1O` [Compound 17], the “weed control effect … Flixweed” value in assay [1] worked out at 10. The “weed control effect … Barnyard grass” value is reported as 2 (above 20% growth inhibition rate) in assay [2] (1 g/mu); 2 (above 20% growth inhibition rate) in assay [2] (2 g/mu); 2 (above 20% growth inhibition rate) in assay [2] (4 g/mu); 4 (above 30% growth inhibition rate) in assay [2] (8 g/mu); 5 (above 50% growth inhibition rate) in assay [2] (16 g/mu).

On to `CCn1ncc(C(=O)c2ccc(S(C)(=O)=O)c(Cn3cc(C)cn3)c2Cl)c1O` [Compound 19], for which, in assay [1], the “weed control effect … Flixweed” value was 10. In addition, the “weed control effect … Barnyard grass” value in assay [2] (1 g/mu) is given as 2 (above 20% growth inhibition rate); in assay [2] (2 g/mu), 3 (above 30% growth inhibition rate); in assay [2] (4 g/mu), 3 (above 30% growth inhibition rate); in assay [2] (8 g/mu), 4 (above 30% growth inhibition rate); in assay [2] (16 g/mu) it was 4 (above 30% growth inhibition rate).

For `CCn1ncc(C(=O)c2ccc(S(C)(=O)=O)c(Cn3nc(C)cc3C)c2Cl)c1O` [Compound 20], the “weed control effect … Flixweed” value in assay [1] is reported as 10. For the same molecule, the “weed control effect … Barnyard grass” value in assay [2] (1 g/mu) is on record as 3 (above 30% growth inhibition rate); in assay [2] (2 g/mu), 4 (above 30% growth inhibition rate); in assay [2] (4 g/mu) it was 6 (above 60% growth inhibition rate); in assay [2] (8 g/mu), 6 (above 60% growth inhibition rate); in assay [2] (16 g/mu), 8 (above 80% growth inhibition rate).

Consider `CCn1nc(C2CC2)c(C(=O)c2ccc(S(C)(=O)=O)c(Cn3cc(C)cn3)c2Cl)c1O` [Compound 22], for which the “weed control effect … Flixweed” value in assay [1] was determined as 10. Further, the “weed control effect … Barnyard grass” value in assay [2] (1 g/mu) is reported as 2 (above 20% growth inhibition rate); in assay [2] (2 g/mu) it was 4 (above 30% growth inhibition rate); in assay [2] (4 g/mu), 6 (above 60% growth inhibition rate); in assay [2] (8 g/mu), 6 (above 60% growth inhibition rate); in assay [2] (16 g/mu), 10.

In the case of `CCn1nc(C2CC2)c(C(=O)c2ccc(S(C)(=O)=O)c(Cn3nc(C)cc3C)c2Cl)c1O` [Compound 23], in assay [1], the “weed control effect … Flixweed” value was 10. The “weed control effect … Barnyard grass” value in assay [2] (1 g/mu) is given as 2 (above 20% growth inhibition rate); in assay [2] (2 g/mu), 3 (above 30% growth inhibition rate); in assay [2] (4 g/mu), 5 (above 50% growth inhibition rate); in assay [2] (8 g/mu), 7 (above 70% growth inhibition rate); in assay [2] (16 g/mu), 8 (above 80% growth inhibition rate).

With `CCc1nn(CC)c(O)c1C(=O)c1ccc(S(C)(=O)=O)c(Cn2cc(C)cn2)c1Cl` [Compound 25], in assay [1], the “weed control effect … Flixweed” value turned out to be 10. For the same molecule, the “weed control effect … Barnyard grass” value is 2 (above 20% growth inhibition rate) in assay [2] (1 g/mu); 3 (above 30% growth inhibition rate) in assay [2] (2 g/mu); 4 (above 30% growth inhibition rate) in assay [2] (4 g/mu); 4 (above 30% growth inhibition rate) in assay [2] (8 g/mu); 5 (above 50% growth inhibition rate) in assay [2] (16 g/mu).

`CCc1nn(CC)c(O)c1C(=O)c1ccc(S(C)(=O)=O)c(Cn2nc(C)cc2C)c1Cl` [Compound 26]: in assay [1], the “weed control effect … Flixweed” value was 10. Moreover, the “weed control effect … Barnyard grass” value in assay [2] (1 g/mu) is on record as 2 (above 20% growth inhibition rate); in assay [2] (2 g/mu), 2 (above 20% growth inhibition rate); in assay [2] (4 g/mu) it was 4 (above 30% growth inhibition rate); in assay [2] (8 g/mu) it was 3 (above 30% growth inhibition rate); in assay [2] (16 g/mu), 5 (above 50% growth inhibition rate).

With `CCc1nn(C(C)C)c(O)c1C(=O)c1ccc(S(C)(=O)=O)c(Cn2nc(C)cc2C)c1Cl` [Compound 29], the “weed control effect … Flixweed” value in assay [1] amounted to 10. The “weed control effect … Barnyard grass” value in assay [2] (1 g/mu) is reported as 2 (above 20% growth inhibition rate); in assay [2] (2 g/mu) it was 3 (above 30% growth inhibition rate); in assay [2] (4 g/mu), 5 (above 50% growth inhibition rate); in assay [2] (8 g/mu), 7 (above 70% growth inhibition rate); in assay [2] (16 g/mu) it was 8 (above 80% growth inhibition rate).

In the case of `Cc1nn(C(C)C)c(O)c1C(=O)c1ccc(S(C)(=O)=O)c(Cn2cc(Cl)cn2)c1Cl` [Compound 30], the “weed control effect … Flixweed” value in assay [1] is given as 10. For the same molecule, the “weed control effect … Barnyard grass” value is listed as 2 (above 20% growth inhibition rate) in assay [2] (1 g/mu); 3 (above 30% growth inhibition rate) in assay [2] (2 g/mu); 5 (above 50% growth inhibition rate) in assay [2] (4 g/mu); 7 (above 70% growth inhibition rate) in assay [2] (8 g/mu); 7 (above 70% growth inhibition rate) in assay [2] (16 g/mu).

The values are drawn from US11661413B2, “Pyrazole compounds or salts thereof, preparation method therefor, herbicidal composition and use thereof” (priority 2015, dated 2023).
